Assay results taken from patent US8618067B2, “L-sugar colon cleansing agent and uses thereof” (Aptalis Pharma US, Inc., priority 2009, dated 2013).
“And” between values parts separate entries of the source, which are not always exact repeats. Equal values may be shown once.

What was measured:
[1] = Dissolution of solid L-glucose forms in water with consumer-like stirring; type: physicochemical; conditions: for Time of stirring until sample fully dissolved: 53 g in 240 mL doubly distilled water
Protocol: Each sample comprises approximately an equivalent amount of L-glucose on a weight basis. Carefully, to avoid agitation and mixing, doubly distilled water (240 mL) is added to each beaker. In one example, the solution is stirred immediately after addition of water. […] The stiffing was conducted in a manner duplicating the way a consumer is expected to stir a sample prior to use.

[2] = test system: colon; assay: Open-label, historically controlled, single-dose study of L-glucose as colon-cleansing agent before colonoscopy (Raymer et al.); type: in vivo, human; conditions: 24-g single dose; equivalent of the 80% success rating
Protocol: For example, an open-label, historically controlled, single-dose study of a 24-g dose of L-glucose was conducted to determine the safety and effectiveness of L-glucose as a colon-cleansing agent before colonoscopy (Raymer et al., “An open-label trial of L-glucose as a colon-cleansing agent before colonoscopy,” Gastrointest Endosc 58(1):30-5, 2003).

[3] = test system: colon; assay: Comparative Example 1: multicenter, double-blind, dose-range-finding study of L-glucose as colon-cleansing agent before colonoscopy; type: in vivo, human; conditions: single doses 12 g, 16 g, 20 g, 24 g; scale of Hsu et al.
Protocol: A multicenter, double-blind, dose-range-finding study to evaluate the effectiveness and safety of L-glucose as a colon-cleansing agent before colonoscopy was conducted. Doses used in this study were 12 g, 16 g, 20 g, and 24 g. The assessment of the preparations was based on the scale used in Hsu et al., “Meta-analysis and cost comparison of polyethylene glycol lavage versus sodium phosphate for colonoscopy preparation,” Gastrointestinal Endoscopy 48(3):276-282, 1998, wherein small bits of fecal material in the colon were allowed in an “Excellent” score.

[4] = test system: colon; assay: Comparative Example 2: randomized, single-blind study of L-glucose as bowel preparation before colonoscopy (GPA scale); type: in vivo, human
Protocol: (§1) Global Preparation Assessment
(§2) Excellent=clean colon or small volume of clear liquid
(§3) Good=moderate to large volume of clear to semiclear liquid
(§4) Fair=some semisolid stool suctioned or washed away
(§5) Poor=semisolid or solid stool unable to be suctioned or washed away
A randomized, single-blind study designed to determine the clinical effectiveness of L-glucose as a bowel preparation before colonoscopy was performed. Three dose regimens were evaluated: 24 g in the evening only, 30 g in the evening only, and 24 g in the evening followed by 12 g in the morning (36 g total). Here, Applicant's GPA scale described herein was used to evaluate the preparations. […] Clinical efficacy (defined as a combination of “excellent” and “good” assessments) for the split-dose schedule was 19/27 (70%), as compared to 7/31 (23%) in the single-dose schedule (p<0.001).
As noted above in the description of Applicant's GPA scale, the criteria for determining whether a preparation was deemed “excellent” or “good” was respectively defined as “clean colon or small volume of clear liquid” or “moderate to large volume of clear to semi-clear liquid.” These criteria are more stringent than the rating system used by Raymer et al. discussed supra since Raymer's “excellent” and “good” ratings were respectively defined as “no more than small bits of adherent fecal fluid” and “small amounts of feces or fluid not interfering with the examination.” Thus, Raymer's “excellent” rating would likely not qualify as even a “good” rating in Applicant's GPA scale.

[5] = test system: colon; assay: Example 3: open-label, 2-site dose-escalating split-dose study of L-glucose before colonoscopy (GPA and RSS); type: in vivo, human
Description: Applicants have relied upon a combination of a categorical, 4-point scale and a numerical, segmental scoring system to assess bowel cleansing quality (Balaban et al. “Low volume bowel preparation for colonoscopy: randomized, endoscopist-blinded trial of liquid sodium phosphate versus tablet sodium phosphate,” Am J Gastroenterol 98:827-32, 2003). The basic 4-point scale, known as the Global Preparation Assessment (GPA), is essentially the same as the original scale used in the first randomized controlled trial of PHOSPHO-SODA™ as a bowel cleansing agent published in 1990 by Vanner, et al. (“A randomized prospective trial comparing oral sodium phosphate with standard polyethylene glycol-based lavage solution (Golytely) in the preparation of patients for colonoscopy,” Am J Gastroenterol 85:422-7, 1990). The numerical scoring system, known as the Residual Stool Score (RSS), is a continuously variable, averaged segmental scoring instrument that assesses both the amount and consistency of residual stool before suctioning (a measure of the cathartic activity of the bowel cleansing regimen) as well as the percent of the bowel wall seen after washing and cleansing (a measure of the ultimate endpoint for bowel preparation success). The two scales are shown below.
as §1, §2, §3, §4, §5
This open-label, 2-site study employed a dose-escalating design using 3 split doses of L-glucose (24 g/24 g, 36 g/36 g, and 48 g/48 g). The doses were administered the night before and the morning of a scheduled colonoscopy. The study was conducted in Phase I facilities to control for administration of L-glucose and adherence to the dietary and hydration regimen.
Three dose cohorts of 24 subjects were evenly divided between males and females for each cohort. Subjects who were scheduled to undergo an elective colonoscopy, who met the study entrance criteria, and who gave their consent to participate in the study were enrolled. […] Each subject observed a strict diet and hydration regimen as part of the study medication administration.
The site pharmacist prepared the L-glucose preparation based on the study medication preparation manual provided. Each subject, regardless of dose cohort, received the dose in 8 ounces of water, which was to be consumed within a 10-minute period. Dose cohorts proceeded in a dose-escalating fashion starting with the lowest dose (24 g/24 g) and escalated according to a dose escalation decision tree.
The physician performing the colonoscopy utilized Applicant's GPA scale to evaluate the quality of bowel preparation as before suctioning and washing.
The Residual Stool Score (RSS) described above was also used to assess bowel cleansing in each of the 5 segments of the bowel (rectum, descending colon, transverse colon, ascending colon, and cecum). As noted, assessments included the amount of stool present, the consistency of the stool, and the estimated percentage of the bowel wall visualized in each segment.
For reasons of inadequate bowel preparation, sections of the bowel that were not directly examined during colonoscopy were rated as “poor” on all three measures listed previously.
A total of 24 subjects were enrolled into each of the three dose cohorts. All 72 subjects were included in the intent-to-treat (ITT) and safety populations.

[6] = cited from earlier work
[7] = test system: colon; conditions: 24-g single dose; Raymer scale; cited from earlier work
[8] = cited from earlier work; remark: listed apart in the source
[9] = 48 g/48 g dose compared with lower split doses

## O.O=C[C@@H](O)[C@H](O)[C@@H](O)[C@@H](O)CO [L-glucose monohydrate]
[1]; 5 min. delay
  Observations: clusters or clumping of solid: Several clusters of solid at 1 min. Final solution
[1]; 5 min. delay before stirring, listed as L- glucose monohydrate^1, monohydrate
  Time of stirring until sample fully dissolved: Sample fully dissolved after 2.5 min. of stirring.
[1]; 5 min. delay before stirring, listed as L- glucose monohydrate^2, monohydrate
  Time of stirring until sample fully dissolved: Fully dissolved after 1 min. of stirring. Final
[1]; 5 min. delay, listed as L- glucose monohydrate^2, monohydrate
  Observations: appearance of final solution: solution was clear, colorless and homogeneous
[1]; No delay
  Observations: clusters or clumping of solid: Several clusters of solid at 1 min. Final solution
[1]; No delay (stirred immediately), listed as L- glucose monohydrate^1, monohydrate
  Time of stirring until sample fully dissolved: Sample fully dissolved after 2.5 min. of stirring.
[1]; No delay (stirred immediately), listed as L- glucose monohydrate^2, monohydrate
  Time of stirring until sample fully dissolved: Fully dissolved after 2 min. of stirring. Final
[1]; No delay, listed as L- glucose monohydrate^2, monohydrate
  Observations: appearance of final solution: solution was clear, colorless and homogeneous

## OC[C@@H]1OC(O)[C@@H](O)[C@H](O)[C@H]1O (stereo partly drawn) [anhydrous L-glucose, reference compound]
[1]; 5 min. delay
  Observations: clusters or clumping of solid: Material clumped into a hard mass during time
[1]; No delay
  Observations: appearance of final solution: stirring. Clear solution results with latent

## O=C[C@@H](O)[C@H](O)[C@@H](O)[C@@H](O)CO [L-glucose]
[2]
  Failure rating: 20%
[3]
  Acceptability as a colonic cleanser: not acceptable
[4]; 24 g and 30 g evening only
  Outcome of the evening-only dose arms: suspended for lack of effectiveness
[4]; in vivo
  Changes in laboratory test results: no clinically significant changes
  Commonly reported adverse events: generally absent or mild
  Overall tolerance to the bowel preparation: good or very good
[5]; 24 g/24 g cohort
  Subjects with GPA rated Excellent (clean colon or small volume of clear liquid): 12 (50.0%) subjects (%) and 12 (50.0) subjects (%)
  Subjects with GPA rated Fair (some semisolid stool suctioned or washed away): 5 (20.8) subjects (%)
  Subjects with GPA rated Good (moderate to large volume of clear to semiclear liquid): 7 (29.2) subjects (%)
  Subjects with GPA rated Poor (semisolid or solid stool unable to be suctioned or washed away): 0 (0.0) subjects (%)
[5]; 36 g/36 g cohort
  Subjects with GPA rated Excellent (clean colon or small volume of clear liquid): 14 (58.3%) subjects (%) and 14 (58.3) subjects (%)
  Subjects with GPA rated Fair (some semisolid stool suctioned or washed away): 2 (8.3) subjects (%)
  Subjects with GPA rated Good (moderate to large volume of clear to semiclear liquid): 7 (29.2) subjects (%)
  Subjects with GPA rated Poor (semisolid or solid stool unable to be suctioned or washed away): 1 (4.2%) subjects (%) and 1 (4.2) subjects (%)
[5]; 48 g/48 g cohort
  Subjects with GPA rated Excellent (clean colon or small volume of clear liquid): 22 (91.7%) subjects (%) and 22 (91.7) subjects (%)
  Subjects with GPA rated Fair (some semisolid stool suctioned or washed away): 1 (4.2) subjects (%)
  Subjects with GPA rated Good (moderate to large volume of clear to semiclear liquid): 1 (4.2) subjects (%)
  Subjects with GPA rated Poor (semisolid or solid stool unable to be suctioned or washed away): 0 (0.0) subjects (%)
[5]; [9]
  Robustness of bowel cleansing: more robust bowel cleansing
  Time to the first watery bowel movement: shortest time to the first watery bowel movement
[5]; Site 01, all dose cohorts
  Subjects who had a complete colonoscopy: 30 (96.8%) subjects (%)
  Subjects with GPA rated poor: 1 (3.2%) subjects (%)
[5]; Site 02, all dose cohorts
  Subjects who had a complete colonoscopy: 39 (95.1%) subjects (%)
[5]; Total of all cohorts
  Subjects with GPA rated Excellent (clean colon or small volume of clear liquid): 48 (66.7) subjects (%)
  Subjects with GPA rated Fair (some semisolid stool suctioned or washed away): 8 (11.1) subjects (%)
  Subjects with GPA rated Good (moderate to large volume of clear to semiclear liquid): 15 (20.8) subjects (%)
  Subjects with GPA rated Poor (semisolid or solid stool unable to be suctioned or washed away): 1 (1.4) subjects (%)
[5]; in each dose cohort (24 g/24 g, 36 g/36 g, 48 g/48 g)
  Subjects who had a complete colonoscopy (endoscopist able to reach the cecum): 23 (95.8%) subjects (%)
[6]; in vivo
  Effect of food restriction on the metabolism of L-glucose: no significant effect
[6]; mice, rats, dogs, rabbits, and monkeys
  Major route of L-glucose elimination: urinary excretion
[7]
  Subjects with colonoscopy preparation grade of excellent or good: 80%
[8]
  Absorption from the human intestine: moderately absorbed
[8]; human
  Glucose or insulin response after administration: No significant glucose or insulin response
  Lower gastrointestinal symptoms (cramping, gas/flatus), mild: occurred in a majority of subjects
  Metabolism by colonic bacteria (breath hydrogen, comparable with in vitro studies): colonic bacteria do not metabolize
  Mild upper gastrointestinal symptoms (vomiting, nausea, belching/rifting, bloating): occurred in a minority of subjects
